Where a name gives a salt, the structure may show the parent alone. Read-outs that look alike come from different tables or passages of the source.
How the values were obtained:
human H4 receptor [1] = biological target: T1, human H4 receptor (Homo sapiens (Human), UniProt Q9H3N8); assay: Binding assay on recombinant human histamine H4 receptor ([3H]histamine competition, SK-N-MC cell membranes); settings: [3H]histamine 10 nM, average of results
Summary of the method: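 Membranes from SK-N-MC cells stably or transiently transfected with human H4 receptor, prepared by homogenization and 30,000 g centrifugation in Tris/EDTA. Bound [3H]histamine separated by rapid filtration on PEI-treated GF/C filters, washed with ice-cold Tris/EDTA, counted by scintillation. '>' values denote highest concentration tested.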

human H4 receptor [2] = biological target: T1, human H4 receptor; assay: cell-based; assay type: cell-based
Description: SK-N-MC cell lines were created that express a reporter gene construct and the human H4 receptor full-coding region (NCBI accession No. AF312230). The reporter gene was β-galactosidase under the control of cyclic AMP-responsive elements. Cells were plated in 96-well plates the night before the assay. Histamine was used as the agonist for all assay. For the H4 receptor, the inhibition of forskolin-stimulated cAMP production was measured. For determination of antagonist activity, compounds were added 10 min prior to the addition of agonist, which was added directly to the cell medium. Forskolin (5 μM final concentration) was added 10 min after the addition of histamine. Cells were returned to the incubator for 6 h at 37° C. The medium was then aspirated, and the cells were washed with […] of phosphate-buffered saline (PBS). Cells were lysed with 25 μL of 0.1X assay buffer (10 mM sodium phosphate, pH 8, 0.2 mM MgSO4, and 0.01 mM MnCl2) and incubated at rt for 10 min. Cells were then incubated for 10 min with 100 μL of 1X assay buffer containing 0.5% (v/v) Triton X-100 and 40 mM β-mercaptoethanol. Color was developed using 25 μL of 1 mg/mL substrate solution (chlorophenol red β-D-galactopyranoside; Roche Applied Science, Indianapolis, Ind.). Color was quantitated on a microplate reader by measuring the absorbance at 570 nm. The data from each concentration-response curve were fitted to a sigmoidal curve to obtain the maximum response, Hill coefficient, and EC50 using Prism (GraphPad Software, San Diego, Calif.). Dose ratios were calculated from individual concentration-response curves of agonists at three to five antagonist concentrations. Apparent pA2 values were calculated using a Schild plot (ND=not determined).

[3] = test system: diabetes induced obese (DIO) mouse model; assay: Insulin resistance in diabetes induced obese (DIO) mouse model; assay type: in vivo
Description: Insulin Resistance in Diabetes Induced Obese Mouse Model.
The effect of administration of an H4R antagonist, 5-fluoro-4-methyl-2-{5-methyl-2-[4-(1-methyl-piperidin-4-yl)-butoxy]-pyridin-4-yl}-1H-benzoimidazole (U.S. Pat. No. 7,432,378, Example 165), was tested in the treatment of insulin resistance in the diabetes induced obese (DIO) mouse model. […] Our data support the claim that H4R antagonists have beneficial properties towards the treatment of type 2 diabetes and related metabolic diseases.

eosinophils = settings: cited from earlier work
mast cells [4] = settings: cited from earlier work
[5] = test system: lipopolysaccharide (LPS)-induced tumor necrosis factor alpha (TNF-α) production; settings: in vivo; cited from earlier work
H4 receptor (H4R) = H4 receptor (H4R) (Homo sapiens (Human), UniProt Q9H3N8); settings: in vitro; cited from earlier work
mast cells [6] = settings: cited from earlier work; remark: listed apart in the source
[7] = test system: mouse models of asthma, arthritis and dermatitis; settings: in vivo; cited from earlier work
[8] = membranes harvested with cell harvester, read-out: Cell Harvester Ki
[9] = apparent pA2 from Schild plot, antagonism of histamine inhibition of forskolin-stimulated cAMP, read-out: pA2 (converted)
[10] = membranes harvested with 96 well Brandel system, read-out: Brandel Ki
[11] = apparent pA2 from Schild plot, antagonism of histamine inhibition of forskolin-stimulated cAMP

T1 sequence (Q9H3N8 whole entry): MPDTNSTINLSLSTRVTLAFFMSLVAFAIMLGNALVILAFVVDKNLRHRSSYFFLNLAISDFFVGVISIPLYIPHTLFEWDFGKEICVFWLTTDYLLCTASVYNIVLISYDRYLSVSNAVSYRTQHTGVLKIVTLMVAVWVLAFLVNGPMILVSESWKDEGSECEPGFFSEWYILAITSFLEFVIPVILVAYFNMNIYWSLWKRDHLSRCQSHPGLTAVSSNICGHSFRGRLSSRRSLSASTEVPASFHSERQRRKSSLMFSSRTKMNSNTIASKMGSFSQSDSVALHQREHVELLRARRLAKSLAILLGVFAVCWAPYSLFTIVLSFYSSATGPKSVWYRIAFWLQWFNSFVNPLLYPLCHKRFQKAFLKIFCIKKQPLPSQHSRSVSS
Sequence of H4 receptor (H4R) (Q9H3N8 whole entry, species assumed): as the sequence (Q9H3N8 whole entry) above

For CN[C@@H]1CCN(c2ccnc(NCC3CC3)c2)C1 [Example 4, N-(Cyclopropylmethyl)-4-[(3R)-3-(methylamino)pyrrolidin-1-yl]pyridin-2-amine ditrifluoroacetate], the Ki (human H4 receptor [1]; [8]) was 0.0049 µM and the Kb (human H4 receptor [2]; [9]) was 0.00138 µM.
For CC(C)CNc1cc(N2CC[C@@H](N)C2)ccn1 [Example 20, 4-[(3R)-3-Aminopyrrolidin-1-yl]-N-(2-methylpropyl)pyridin-2-amine dihydrochloride], the Ki (human H4 receptor [1]; [10]) was 0.0035 µM and the Kb (human H4 receptor [2]; [9]) was 0.02 µM.
Compound CN[C@@H]1CCN(c2cnnc(NCC(C)C)c2)C1 [Example 95, 5-[(3R)-3-(Methylamino)pyrrolidin-1-yl]-N-(2-methylpropyl)pyridazin-3-amine] has a Ki (human H4 receptor [1]; [10]) of 0.015 µM, a Ki (human H4 receptor [1]; [8]) of 0.015 µM and a pA2 (human H4 receptor [2]; [11]) of 7.8.
CC(C)CNc1cc(N2C[C@H]3CCN[C@H]3C2)ccn1 [Example 257, 4-[(3aR,6aR)-Hexahydropyrrolo[3,4-b]pyrrol-5(1H)-yl]-N-(2-methylpropyl)pyridin-2-amine] gave a Ki (human H4 receptor [1]; [8]) of 0.0645 µM and a Kb (human H4 receptor [2]) of 0.0501 µM.
In the case of Cc1cnc(OCCCCC2CCN(C)CC2)cc1-c1nc2c(C)c(F)ccc2[nH]1 [5-Fluoro-4-methyl-2-{5-methyl-2-[4-(1-methyl-piperidin-4-yl)-butoxy]-pyridin-4-yl}-1H-benzoimidazole], the “MCP-1 and TNF-α expression” value [3] is reported as “reduced”, the “fat content in liver” value [3] is reported as “significantly reduced” and the “fed and fasted glucose levels” value ([3]; 20 mg/kg PO) is reported as “significantly reduced”. The “insulin sensitivity as determined by an insulin tolerance test” value ([3]; 20 mg/kg PO) was “improved”.
Work on CNC1CN(c2cnnc(NC3CC4CCC3C4)c2)C1 (stereo not drawn) [Example 331, N-Bicyclo[2.2.1]hept-2-yl-5-[3-(methylamino)azetidin-1-yl]pyridazin-3-amine] yielded a Ki (human H4 receptor [1]; [8]) of 0.0967 µM and a Kb (human H4 receptor [2]; [9]) of 0.0398 µM.
Work on c1nnc(NC2CC3CCC2C3)cc1N1CCCNCC1 (stereo not drawn) [Example 308, N-Bicyclo[2.2.1]hept-2-yl-5-(1,4-diazepan-1-yl)pyridazin-3-amine] yielded a Ki (human H4 receptor [1]; [8]) of 0.0184 µM and a Kb (human H4 receptor [2]; [9]) of 0.0794 µM.
Compound CN[C@H]1CCN(c2ccnc(NC3CC4CCC3C4)n2)C1 (stereo partly drawn) [Example 162, N-Bicyclo[2.2.1]hept-2-yl-4-[(3S)-3-(methylamino)pyrrolidin-1-yl]pyrimidin-2-amine] has a Ki (human H4 receptor [1]; [8]) of 0.00714 µM and a pA2 (human H4 receptor [2]; [11]) of 8.1.
In the case of CN[C@H]1CCN(c2ccnc(NC3CC4CCC3C4)c2)C1 (stereo partly drawn) [Example 231, N-Bicyclo[2.2.1]hept-2-yl-4-[(3S)-3-(methylamino)pyrrolidin-1-yl]pyridin-2-amine], the Ki (human H4 receptor [1]; [8]) is reported as 0.00841 µM and the pA2 (human H4 receptor [2]; [11]) is reported as 9.
With CN[C@@H]1CCN(c2ccnc(NC[C@H]3CC[C@H]4C[C@@H]3C4(C)C)c2)C1 [Example 217, N-{[(1S,2S,5S)-6,6-Dimethylbicyclo[3.1.1]hept-2-yl]methyl}-4-[(3R)-3-(methylamino)pyrrolidin-1-yl]pyridin-2-amine] the Ki (human H4 receptor [1]; [8]) was 0.0243 µM and the Kb (human H4 receptor [2]; [9]) was 0.0316 µM.
Compound CN[C@@H]1CCN(c2ccnc(NC(C)C)c2)C1 [Example 12, 4-[(3R)-3-(Methylamino)pyrrolidin-1-yl]-N-(1-methylethyl)pyridin-2-amine] has a Ki (human H4 receptor [1]; [8]) of 0.0192 µM and a pA2 (human H4 receptor [2]; [11]) of 8.5.
Work on CCCNc1cc(N2CC[C@@H](NC)C2)ccn1 [Example 3, 4-[(3R)-3-(Methylamino)pyrrolidin-1-yl]-N-propylpyridin-2-amine dihydrochloride] yielded a Ki (human H4 receptor [1]; [8]) of 0.00726 µM and a Kb (human H4 receptor [2]; [9]) of 0.002 µM.
Compound CN[C@@H]1CCN(c2ccnc(NCC34CC5CC(CC(C5)C3)C4)c2)C1 [Example 220, Adamantan-1-ylmethyl-[4-(3R)-(3-methylamino-pyrrolidin-1-yl)-pyridin-2-yl]-amine] has a Ki (human H4 receptor [1]; [8]) of 0.00648 µM and a Kb (human H4 receptor [2]; [9]) of 0.0251 µM.
CN[C@@H]1CCN(c2cnnc(NCC(C)(C)C)c2)C1 [Example 392, N-(2,2-Dimethylpropyl)-5-[(3R)-3-(methylamino)pyrrolidin-1-yl]pyridazin-3-amine] showed a Ki (human H4 receptor [1]; [8]) of 0.0183 µM and a Kb (human H4 receptor [2]; [9]) of 0.00794 µM.
Work on CN[C@H]1CCN(c2cnnc(NC3CCCC3)c2)C1 [Example 380, N-Cyclopentyl-5-[(3S)-3-(methylamino)pyrrolidin-1-yl]pyridazin-3-amine] yielded a Ki (human H4 receptor [1]; [8]) of 0.0543 µM and a Kb (human H4 receptor [2]; [9]) of 0.0631 µM.
In the case of Cc1cc(C)c2nc(-c3cnc(NCCCC4CCN(C)CC4)nc3C)[nH]c2c1 [[5-(4,6-dimethyl-1H-benzoimidazol-2-yl)-4-methyl-pyrimidin-2-yl]-[3-(1-methyl-piperidin-4-yl)-propyl]-amine], the “histamine-induced shape change of eosinophils” value (eosinophils) is listed as “inhibited”, the “chemotaxis of mast cells” value (mast cells [4]) is listed as “inhibited” and the “LPS-induced TNF-α production and other cytokines” value [5] is listed as “inhibited”. For the same compound, the “selectivity over other histamine receptors” value (H4 receptor (H4R)) was “greater than 25 fold”, the “IL-6 production in mast cells” value (mast cells [6]) was “inhibited” and the “inflammation in mouse models of asthma, arthritis and dermatitis” value [7] was “reduced inflammation”.
CN[C@@H]1CCN(c2ccnc(NC[C@H]3CC[C@H]4C[C@@H]3C4(C)C)n2)C1 [Example 193, N-{[(1S,2S,5S)-6,6-Dimethylbicyclo[3.1.1]hept-2-yl]methyl}-4-[(3R)-3-(methylamino)pyrrolidin-1-yl]pyrimidin-2-amine] gave a Ki (human H4 receptor [1]; [8]) of 0.016 µM and a Kb (human H4 receptor [2]; [9]) of 0.0126 µM.
COCCNc1nccc(N2C[C@H]3CCN[C@H]3C2)n1 [Example 140, 4-[(3aR,6aR)-Hexahydropyrrolo[3,4-b]pyrrol-5(1H)-yl]-N-(2-methoxyethyl)pyrimidin-2-amine] gave a Ki (human H4 receptor [1]; [8]) of 0.135 µM.
For CN[C@H]1CCN(c2ccnc(NCCCO)c2)C1 [Example 234, 3-({4-[(3S)-3-(Methylamino)pyrrolidin-1-yl]pyridin-2-yl}amino)propan-1-ol], the Ki (human H4 receptor [1]; [8]) was 7.26 µM.
Work on c1ccc(CCNc2nccc(N3CCNCC3)n2)cc1 [Example 132, N-(2-Phenylethyl)-4-piperazin-1-ylpyrimidin-2-amine] yielded a Ki (human H4 receptor [1]; [8]) of 1.54 µM.
Work on OCCCNc1nccc(N2CCNCC2)n1 [Example 137, 3-[(4-Piperazin-1-ylpyrimidin-2-yl)amino]propan-1-ol] yielded a Ki (human H4 receptor [1]; [8]) of 1.38 µM.
Compound CN[C@@H]1CCN(c2cnnc(NCC3CCC4CC3C4(C)C)c2)C1 (stereo partly drawn) [Example 388, N-[(6,6-Dimethylbicyclo[3.1.1]hept-2-yl)methyl]-5-[(3R)-3-(methylamino)pyrrolidin-1-yl]pyridazin-3-amine] has a Ki (human H4 receptor [1]; [8]) of 0.293 µM.
Work on CC(C)CNc1cc(N2CC[C@@H](N)C2)cnn1 [Example 353, 5-[(3R)-3-Aminopyrrolidin-1-yl]-N-(2-methylpropyl)pyridazin-3-amine] yielded a Ki (human H4 receptor [1]; [8]) of 0.106 µM.
Work on CNC1CN(c2ccnc(NCC3CCC4CC3C4(C)C)n2)C1 (stereo not drawn) [Example 105, N-[(6,6-Dimethylbicyclo[3.1.1]hept-2-yl)methyl]-4-[3-(methylamino)azetidin-1-yl]pyrimidin-2-amine] yielded a Ki (human H4 receptor [1]; [8]) of 0.165 µM.

— patent publication US9732087B2, “Diamino-pyridine, pyrimidine, and pyridazine modulators of the histamine H4 receptor” (JANSSEN PHARMACEUTICA NV, priority 2008, dated 2017)
